ChEMBL document CHEMBL5154826, “Discovery of the Clinical Candidate MAK683: An EED-Directed, Allosteric, and Selective PRC2 Inhibitor for the Treatment of Advanced Malignancies” (J Med Chem, 2022)
Values after ≈ are worked out from the molar mass of the structure shown.

Experiments:
[1] = Intrinsic clearance in human hepatocytes measured per 10^6 cells; type: ADME, cell-based, Hepatocyte; conditions: read-out: CLH
[2] = Lipophilicity, logD of the compound at pH 7.4 by LC with tandem MS analysis; type: physicochemical; conditions: buffer
Cytochrome P450 3A4 = Cytochrome P450 3A4 (Homo sapiens, UniProt P08684); assay: Inhibition of CYP3A4 in human liver microsomes using midazolam as substrate incubated for 10 mins in presence of NADPH by LC-MS/MS analysis; type: ADME, Microsome
Chain of Cytochrome P450 3A4 (P08684 whole entry): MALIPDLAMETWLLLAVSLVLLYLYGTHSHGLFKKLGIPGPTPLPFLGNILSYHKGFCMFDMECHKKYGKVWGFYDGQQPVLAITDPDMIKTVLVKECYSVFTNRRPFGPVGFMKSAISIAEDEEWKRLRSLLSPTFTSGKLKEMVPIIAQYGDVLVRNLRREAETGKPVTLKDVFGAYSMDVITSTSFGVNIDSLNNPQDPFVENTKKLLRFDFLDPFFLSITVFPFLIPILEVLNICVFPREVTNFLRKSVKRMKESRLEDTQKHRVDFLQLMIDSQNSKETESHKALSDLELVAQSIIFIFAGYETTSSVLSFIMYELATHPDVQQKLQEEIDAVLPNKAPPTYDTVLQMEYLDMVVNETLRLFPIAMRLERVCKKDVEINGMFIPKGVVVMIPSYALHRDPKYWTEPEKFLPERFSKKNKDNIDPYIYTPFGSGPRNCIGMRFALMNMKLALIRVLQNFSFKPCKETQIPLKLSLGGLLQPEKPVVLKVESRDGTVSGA

Cytochrome P450 2D6 [3] = target: T1, Cytochrome P450 2D6 (Homo sapiens, UniProt P10635); assay: Inhibition of CYP2D6 in human liver microsomes using bufuralol as substrate incubated for 10 mins in presence of NADPH by LC-MS/MS analysis; type: ADME, Microsome
T1 sequence (P10635 whole entry): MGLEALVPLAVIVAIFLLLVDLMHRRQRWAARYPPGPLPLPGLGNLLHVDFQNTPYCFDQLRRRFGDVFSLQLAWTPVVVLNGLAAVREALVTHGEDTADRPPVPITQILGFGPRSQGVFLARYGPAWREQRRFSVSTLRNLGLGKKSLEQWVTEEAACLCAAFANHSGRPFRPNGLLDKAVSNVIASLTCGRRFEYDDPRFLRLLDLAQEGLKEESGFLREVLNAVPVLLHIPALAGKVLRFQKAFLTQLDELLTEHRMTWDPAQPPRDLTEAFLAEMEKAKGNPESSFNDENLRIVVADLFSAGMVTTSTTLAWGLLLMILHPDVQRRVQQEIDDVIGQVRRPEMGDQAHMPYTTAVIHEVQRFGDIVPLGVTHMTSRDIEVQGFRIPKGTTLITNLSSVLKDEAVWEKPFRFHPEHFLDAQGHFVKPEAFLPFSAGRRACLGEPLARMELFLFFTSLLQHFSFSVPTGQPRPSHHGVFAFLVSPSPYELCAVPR

[4] = target: 3',5'-cyclic-AMP phosphodiesterase 4D (Homo sapiens, UniProt Q08499); assay: Inhibition of human Phosphodiesterase 4D
Chain of 3',5'-cyclic-AMP phosphodiesterase 4D (Q08499 whole entry): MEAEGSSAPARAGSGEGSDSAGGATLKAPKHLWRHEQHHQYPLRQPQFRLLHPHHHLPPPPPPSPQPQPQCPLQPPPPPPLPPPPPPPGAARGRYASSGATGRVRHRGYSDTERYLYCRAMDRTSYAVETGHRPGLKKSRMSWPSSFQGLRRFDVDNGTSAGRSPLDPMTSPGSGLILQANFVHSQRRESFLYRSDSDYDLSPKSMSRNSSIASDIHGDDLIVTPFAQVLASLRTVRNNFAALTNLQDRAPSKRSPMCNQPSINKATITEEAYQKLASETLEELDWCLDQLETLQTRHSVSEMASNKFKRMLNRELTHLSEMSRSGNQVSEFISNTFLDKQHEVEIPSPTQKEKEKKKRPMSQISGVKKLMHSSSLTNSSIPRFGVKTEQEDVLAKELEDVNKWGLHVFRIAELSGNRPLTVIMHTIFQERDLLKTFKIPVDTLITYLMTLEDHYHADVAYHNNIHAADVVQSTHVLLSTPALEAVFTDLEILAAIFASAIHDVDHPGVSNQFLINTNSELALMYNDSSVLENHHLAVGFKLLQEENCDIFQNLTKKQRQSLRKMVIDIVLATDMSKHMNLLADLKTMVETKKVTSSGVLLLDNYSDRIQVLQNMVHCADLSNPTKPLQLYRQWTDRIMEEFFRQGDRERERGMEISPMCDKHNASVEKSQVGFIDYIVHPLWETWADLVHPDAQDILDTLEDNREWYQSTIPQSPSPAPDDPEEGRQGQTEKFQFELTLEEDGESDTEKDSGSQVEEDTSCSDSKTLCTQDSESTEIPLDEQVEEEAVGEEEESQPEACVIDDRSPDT

[5] = High throughput solubility of the compound at pH 1 after 16 to 24 hrs by MS/MS analysis; type: physicochemical; conditions: buffer, time 16-24 hrs
[6] = High throughput solubility of the compound at pH 7 after 16 to 24 hrs by MS/MS analysis; type: physicochemical; conditions: buffer, time 16-24 hrs, read-out: solubility
[7] = High throughput solubility of the compound in SGF after 16 to 24 hrs by MS/MS analysis; type: physicochemical; conditions: time 16-24 hrs
[8] = High throughput solubility of the compound in FeSSIF after 16 to 24 hrs by MS/MS analysis; type: physicochemical; conditions: time 16-24 hrs
[9] = Permeability across basolateral to apical side in human Caco-2 cells incubated for 2 hrs by LC/MS/MS analysis; type: ADME, cell-based; conditions: read-out: permeability
[10] = Antitumor activity against human Karpas-422 cells xenografted Athymic BALB/c nude mouse assessed as inhibition of tumor growth at 3 to 100 mg/kg, po bid, for 30 days treatment started at twenty fifth day after cancer cell implantation and followed by stop dosing measured upto 70 days; type: functional; parameters: scale not given: the % may be the effect or the level left; conditions: dose 3-100 mg/kg, time 30 day
[11] = Antitumor activity against human Karpas-422 cells xenografted Athymic BALB/c nude mouse assessed as inhibition of tumor growth at 30 mg/kg, po bid, for 33 days; type: functional; parameters: scale not given: the % may be the effect or the level left; conditions: time 33 day
[12] = Antitumor activity against human Karpas-422 cells xenografted Athymic BALB/c nude mouse assessed as inhibition of tumor growth at 100 mg/kg, po for 26 days; type: functional; parameters: scale not given: the % may be the effect or the level left; conditions: time 26 day
[13] = Antitumor activity against human Karpas-422 cells xenografted Athymic BALB/c nude mouse assessed as inhibition of tumor growth at 300 mg/kg, po for 23 days; type: functional; parameters: scale not given: the % may be the effect or the level left; conditions: time 23 day
[14] = In vivo inhibition of PRC2 in PBMC collected from human Karpas-422 cells xenografted Athymic NTac:NIH-Whn nude rat assessed as reduction in H3K27me3 level at 10 mg/kg, po, qd for 42 days measured after 4 hrs of last dose by FACS method; type: functional; parameters: scale not given: the % may be the effect or the level left; conditions: time 42 day
[15] = In vivo inhibition of PRC2 in PBMC collected from human Karpas-422 cells xenografted Athymic NTac:NIH-Whn nude rat assessed as reduction in H3K27me3 level at 30 mg/kg, po, qd for 42 days measured after 4 hrs of last dose by FACS method; type: functional; parameters: scale not given: the % may be the effect or the level left; conditions: time 42 day
[16] = Ratio of drug level in rat blood to plasma; type: ADME, cell-free
[17] = Ratio of drug level in mouse blood to plasma; type: ADME, cell-free
[18] = Oral biovailability in ICR (CD-1) mouse at 2 mg/kg, po; type: ADME, organism-based; conditions: in vivo
[19] = Volume of distribution at steady state ICR (CD-1) mouse at 2 mg/kg, po or 1 mg/kg, iv after 1 week by LC-MS/MS analysis; type: ADME, organism-based; conditions: in vivo, 168 h, time 1 weeks
[20] = Volume of distribution at steady state in Sprague-Dawley rat at 2 mg/kg, po or 1 mg/kg, iv after 1 week by LC-MS/MS analysis; type: ADME, organism-based; conditions: in vivo, 168 h, time 1 weeks
[21] = Volume of distribution at steady state in wild type Beagle dog at 2 mg/kg, po or 1 mg/kg, iv after 1 week by LC-MS/MS analysis; type: ADME, organism-based, Canis lupus familiaris; conditions: in vivo, 168 h, time 1 weeks
[22] = Dose normalized Cmax in Sprague-Dawley rat at 2 mg/kg, po or 1 mg/kg, iv after 1 week by LC-MS/MS analysis; type: ADME, organism-based; conditions: in vivo, 168 h, time 1 weeks
[23] = Dose normalized Cmax in wild type Beagle dog at 2 mg/kg, po or 1 mg/kg, iv after 1 week by LC-MS/MS analysis; type: ADME, organism-based, Canis lupus familiaris; conditions: in vivo, 168 h, time 1 weeks
[24] = Metabolic stability in dog microsomes assessed as intrinsic clearance; type: ADME, Canis lupus familiaris, Microsome; conditions: read-out: CLH
[25] = Intrinsic clearance in rat hepatocytes measured per 10^6 cells; type: ADME, cell-based, Hepatocyte; conditions: read-out: CLH
[26] = Plasma clearance in rat; type: ADME, cell-free
[27] = Plasma clearance in mouse assessed as hepatic extraction; type: ADME, cell-free; conditions: read-out: ERH
[28] = Plasma clearance in rat assessed as hepatic extraction; type: ADME, cell-free; conditions: read-out: ERH
[29] = Plasma clearance in dog assessed as hepatic extraction; type: ADME, cell-free, Canis lupus familiaris; conditions: read-out: ERH
[30] = Plasma protein binding in mouse at 1 uM measured after 6 hrs LC-MS/MS analysis; type: ADME, cell-free; conditions: read-out: PPB (converted)
[31] = Plasma protein binding in dog at 1 uM measured after 6 hrs LC-MS/MS analysis; type: ADME, cell-free, Canis lupus familiaris; conditions: read-out: PPB (converted)
[32] = High throughput solubility of the compound at pH 4 after 16 to 24 hrs by MS/MS analysis; type: physicochemical; conditions: buffer, time 16-24 hrs
[33] = target: T2, Alpha-2A adrenergic receptor (Homo sapiens, UniProt P08913); assay: Agonist activity at adrenergic receptor alpha2a (unknown origin); type: functional
T2 sequence (P08913 whole entry): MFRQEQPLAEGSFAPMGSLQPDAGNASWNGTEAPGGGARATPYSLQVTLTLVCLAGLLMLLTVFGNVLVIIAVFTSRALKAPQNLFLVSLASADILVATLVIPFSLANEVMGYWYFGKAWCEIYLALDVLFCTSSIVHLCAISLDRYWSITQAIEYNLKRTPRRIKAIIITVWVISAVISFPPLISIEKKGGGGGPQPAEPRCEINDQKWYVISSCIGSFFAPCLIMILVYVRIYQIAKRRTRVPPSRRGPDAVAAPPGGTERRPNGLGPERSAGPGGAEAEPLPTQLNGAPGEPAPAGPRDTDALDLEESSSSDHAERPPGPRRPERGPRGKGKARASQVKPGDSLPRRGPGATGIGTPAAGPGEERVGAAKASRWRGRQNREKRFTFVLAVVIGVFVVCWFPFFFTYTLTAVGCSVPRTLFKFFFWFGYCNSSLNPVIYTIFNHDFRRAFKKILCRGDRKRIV

[34] = Mutagenecity in Salmonella typhimurium TA98 by Ames test; type: toxicity; conditions: salmonella enterica subsp. enterica serovar typhimurium
Cytochrome P450 2D6 [35] = target: T1, Cytochrome P450 2D6; assay: Inhibition of CYP2D6 human liver microsomes using bufuralol as substrate incubated for 15 mins by LC-MS/MS analysis; type: ADME, Microsome
Cytochrome P450 3A5 = Cytochrome P450 3A5 (Homo sapiens, UniProt P20815); assay: Inhibition of CYP3A5 in human liver microsomes by LC-MS/MS analysis; type: ADME, Microsome
Chain of Cytochrome P450 3A5 (P20815 whole entry): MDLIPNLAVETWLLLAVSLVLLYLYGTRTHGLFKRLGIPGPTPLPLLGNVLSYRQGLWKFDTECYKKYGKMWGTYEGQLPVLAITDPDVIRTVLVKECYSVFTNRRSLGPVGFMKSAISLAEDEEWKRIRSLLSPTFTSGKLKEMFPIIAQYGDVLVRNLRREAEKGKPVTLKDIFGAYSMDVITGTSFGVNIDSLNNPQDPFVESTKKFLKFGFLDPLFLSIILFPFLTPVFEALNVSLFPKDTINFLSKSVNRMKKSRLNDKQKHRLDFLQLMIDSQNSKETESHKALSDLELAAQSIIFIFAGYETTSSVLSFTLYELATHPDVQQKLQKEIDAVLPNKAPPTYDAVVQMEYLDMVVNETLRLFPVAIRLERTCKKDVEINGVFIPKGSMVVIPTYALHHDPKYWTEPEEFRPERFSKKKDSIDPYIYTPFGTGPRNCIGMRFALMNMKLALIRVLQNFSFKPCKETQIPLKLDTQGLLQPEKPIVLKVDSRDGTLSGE

[36] = Drug metabolism in bile duct cannulated Wistar Han rat assessed as parent compound recovery in urine at 3 mg/kg, iv after 8 hrs by LC-MS/MS analysis; type: ADME, organism-based; conditions: read-out: Drug metabolism
cells = conditions: Homo sapiens, G-401, 48 h
Description: Inhibition of PRC2 in human G-401 cells assessed as H3K27 methylation status incubated for 48 hrs by ELISA method

Cc1ncccc1-c1cnc(NCc2c(F)ccc3c2CCO3)n2cnnc12
hepatocyte CLint [1]: 4.4 µL/min/1e6 cells
logD [2]: 3.88
IC50 (Cytochrome P450 3A4): > 20 µM
IC50 (Cytochrome P450 2D6 [3]): > 20 µM
IC50 [4]: 6.4 µM
solubility [5]: > 13000 µM
solubility [6]: 19 µM (≈ 7.15 µg/mL)
solubility [7]: 8740 µM (≈ 3290 µg/mL)
solubility [8]: 57 µM (≈ 21.5 µg/mL)
Papp B→A at 2 h [9]: 37 ×10⁻⁶ cm/s
Activity [10]: 100%
Activity [11]: 100%
Activity [12]: 100%
Activity [13]: 100%
Activity [14]: 97%
Activity [15]: 93%
blood plasma ratio [16]: 0.98
blood plasma ratio [17]: 1.03
bioavailability [18]: 77%
Vdss [19]: 3.5 L/kg
Vdss [20]: 2 L/kg
Vdss [21]: 1 L/kg
Cmax/dose [22]: 427 nM
Cmax/dose [23]: 400 nM
microsomal CLint [24]: 91 µL/min/mg
hepatocyte CLint [25]: 12 µL/min/1e6 cells
clearance [26]: 10 mL/min/kg
hepatic extraction ratio [27]: 0.42
hepatic extraction ratio [28]: 0.18
hepatic extraction ratio [29]: 0.35
fraction unbound at 6 h, 1 µM [30]: 0.15
fraction unbound at 6 h, 1 µM [31]: 0.09
solubility [32]: 266 µM (≈ 100 µg/mL)
IC50 [33]: 9.6 µM
Activity [34]: Non-Toxic
IC50 (Cytochrome P450 2D6 [35]): > 18 µM
IC50 (Cytochrome P450 3A5): > 18 µM
dose excreted at 8 h [36]: 0.5%
IC50 (cells): 3 µM
